{"source": "patent US11254652B2", "about": "“Crystalline forms of N-(4-(4-(cyclopropymethyl)piperazine-1-carbonyl)phenyl)quinoline-8-sulfonamide” (Agios Pharmaceuticals, Inc., priority 2017, dated 2022)", "key": {"[1]": {"assay": "Solubility in water and simulated fluids at 37° C. (slurry, HPLC; XRPD of residual solid)", "type": "physicochemical", "conditions": "values based on hemi-sulfate sesqui-hydrate salt, hemisulfate salt", "description": "Solubility of Patterns A, B and D were measured in water. The solids were slurried in the fluids for two days and at 37° C. The supernatant was syringe filtered and used for HPLC analysis. For Patterns A and D the solubility measurement was repeated and the sample was taken after 1 hr slurry. A calibration curve was developed using Pattern A. This was not assay corrected and therefore the solubility values are based on the hemi-sulfate, sesqui-hydrate salt.\nBoth Patterns B and D converted to Pattern A after two days slurry. Pattern D also converted to Pattern A within 1 hour slurry in Fasted state simulated gastric fluid (FaSSGF) or water. […] This could be because of the conversion of Patterns B and D to Pattern A. The solubility data and the resulting XRPD Pattern after the measurement are reported in Table 21."}, "[2]": {"assay": "Dynamic Vapor Sorption (DVS)", "type": "physicochemical", "conditions": "hemisulfate salt; for moisture picked up in DVS: 2% to 95% relative humidity, temperature not stated; for XRPD after DVS: Form A: DVS at 25° C. and 40° C.", "description": "Dynamic Vapor Sorption (DVS) was done using a DVS Intrinsic 1. The sample is loaded into a sample pan and suspended from a microbalance. A typical sample mass for DVS measurement is 25 mg. Nitrogen gas bubbled through distilled water provides the desired relative humidity. A typical measurement comprises the steps: • 1. Equilibrate at 50% RH • 2. 50% to 2%. (50%, 40%, 30%, 20%, 10% and 2%) • a. Hold minimum of 5 mins and maximum of 60 minutes at each humidity. The pass criteria is less than 0.002% change • 3. 2% to 95% (2%, 10%, 20%, 30%, 40%, 50%, 60%, 70%, 80%, 90%, 95%) • b. Hold minimum of 5 mins and maximum of 60 minutes at each humidity. The pass criteria is less than 0.002% change • 4. 95% to 2% (95%, 80%, 70%, 60%, 50%, 40%, 30%, 20%, 10%, 2%) • c. Hold minimum of 5 mins and maximum of 60 minutes at each humidity. The pass criteria is less than 0.002% change • 5. 2% to 50% (2%, 10%, 20%, 30%, 40%, 50%) • d. Hold minimum of 5 mins and maximum of 60 minutes at each humidity. The pass criteria is less than 0.002% change\n(§1) The water content by Karl Fisher was about 5.3%. […] A DVS isotherm taken at 40° C. was essentially the same as the one at 25° C. […] Humidity test was conducted on Form A with exposure to 11%, 48%, and 75% relative humidity at 40° C. for 2 weeks followed by XRPD analysis. […] Crystallographic data for Form A is as follows:\nForm B tends to hold substantial amount of solvent.\n(§2) Form D was determined to be anhydrous with a melting peak at 239° C. See e.g., FIG. 9. DVS of Pattern D was performed and solid picked up about 2% moisture from 2% to 95% relative humidity."}, "[3]": {"assay": "Humidity / desiccant exposure test followed by XRPD analysis", "type": "physicochemical", "conditions": "one week exposure to 75% relative humidity at 40° C.", "description": "FIG. 5 (i) depicts X-ray powder diffraction pattern (XRPD) overlay for crystalline hemisulfate salt Form A and after exposure to 11%, 48%, and 75% relative humidity and 40° C. for two weeks. […] FIG. 5 (ii) depicts XRPD overlay for crystalline hemisulfate salt Form A and after exposure to phosphorus pentoxide (P2O5) granules at room temperature and 50° C. for one week, as well as ambient temperature in a vial for 24 hrs.\nas §1, §2"}, "[4]": {"assay": "Solubility in phosphate buffer pH7.4", "type": "physicochemical"}, "[5]": {"assay": "Pharmacokinetic evaluation after single PO suspension dose", "type": "in vivo, Sprague-Dawley rat", "conditions": "for AUC 0-last / Cmax: PO 200 mg/kg (free base equivalent), suspension in 0.5% methyl-cellulose, male Sprague-Dawley rats, n=6, plasma, 200 mg/kg; for AUC fold higher compared to crystalline free-base of Compound 1 / Cmax fold higher compared to crystalline free-base of Compound 1: PO suspension 200 mg/kg, fasted male Sprague-Dawley rats", "description": "Single dose in suspension using Crystalline Form A micronized and unmicronized, and crystalline free base of Compound 1 were administered to male Sprague-Dawley rat at 200 mg/kg. Blood samples were collected in the presence of K2EDTA, and were centrifuged to obtain plasma. The plasma was then analyzed for these compounds by LC/MS.\nAll animals involved in the dosing schedule were weighted and assigned numbers. All suspension formulations were freshly made prior use. Each solution was prepared at 40 mg/mL in 0.5% methyl-cellulose solution in water. The tubes were vortex for 2 min and sonicate for 30 min to achieve a white homogenous suspension.\nAll animals (n=6/group) were dosed orally in a volume of 5 mL/kg. Following dosing, each rat was bled at each of the designated time points. Blood samples were collected from the tail vain. Blood aliquots (150 μl) were collected in tubes coated with K2EDTA, mixed gently then kept on ice and centrifuged at 2,000 g for 5 minutes at 4° C., within 15 min of collection. The plasma layer was collected and maintained frozen at −70° C. until further processing.\nBioanalytical quantitation using HPLC/triple quadruple mass spectrometry (HPLC-MS) was performed. Plasma concentrations and T½ were calculated and reported.\nA 1 mg/mL standard solution in DMSO:methanol (20:80, v/v) was diluted in 50 fold and subsequently serial diluted in 50% methanol water. Aliquots (10 μl) of the serial dilutions were mixed with 190 ul of control plasma for use as a standard curve. Plasma samples (50 μl) and standard samples (non-diluted) were diluted 10× with ice cold acetonitrile containing 40 ng/ml dexamethasone as internal standard. Acetonitrile precipitated samples and standards were vortexed at 5 g for 2 min (IKA vortex), then centrifuged at 5000 g for 10 min.\nFor 10-fold dilution standard samples: an aliquot of 5 μL sample was added with 45 μL control plasma to obtain the diluted samples. If a 50-fold dilution standard sample was required: an aliquot of 10 μL 10-fold diluted sample was added with 40 μL blank plasma to obtain the final diluted samples. Then, the exaction procedure for diluted samples was same as those for non-diluted samples.\nSamples and standards (10 μl) were injected into the LC-MS system, as described below. Concentrations of dose solutions were reported in mg/mL.\nLC: 7.5 μl of each sample and standard were injected onto a Waters BEH C18 (2.1×50 mm, 1.7 μm, maintained at 60° C.) column at 0.6 mL/min by an UPLC. The column was equilibrated at 10% acetonitrile. Compounds were eluted with a gradient to 95% acetonitrile. All mobile phase contained 0.025% (v/v) formic acid with 1 mM ammonium acetate.\nMS: Column eluent was analyzed by electrospray ionization into a triple quadruple mass spectrometer system. Eluent composition was analyzed for ion pair specifics to the internal standard and the analyte respectively.\nExperimental samples were compared with standard curve samples to determine compound concentrations. Average compound concentrations (in ng/mL±standard deviation) were reported for each time-point. […] PK analysis was performed in Phoenix Winnonlin; Cmax were determined as the maximum average concentration observed at a given point, the area under the curve (AUC) was reported for t0 to tlast ours."}, "[6]": {"assay": "Solubility measurements by gravimetric method in solvents at 23° C. and 50° C.", "type": "physicochemical", "conditions": "non-crystalline freebase; for solubility at 2 days: organic solvent or mixture, thermodynamic from solid, read-out: Solubility", "description": "Solubility measurements were done by gravimetric method in 20 different solvents at two temperatures (23° C. and 50° C.). About 20-30 mg of Form A, the synthesis of which is described below, was weighed and 0.75 mL solvent was added to form a slurry. The slurry was then stirred for two days at the specified temperature. The vial was centrifuged and the supernatant was collected for solubility measurement through gravimetric method. The saturated supernatant was transferred into pre-weighed 2 mL HPLC vials and weighed again (vial+liquid). The uncapped vial was then left on a 50° C. hot plate to slowly evaporate the solvent overnight. The vials were then left in the oven at 50° C. and under vacuum to remove the residual solvent so that only the dissolved solid remained. The vial was then weighed (vial+solid). From these three weights; vial, vial+liquid and vial+solid; the weight of dissolved solid and the solvent were calculated. Then using solvent density the solubility was calculated as mg solid/mL of solvent.\n20-30 mg of Form A was weighed into 2 mL vial and 500 μL MeOH solvent system as outlined in the table was added. If dissolved, more solids were added to form the slurry. The slurries were then stirred for two days. The vials were centrifuged and the supernatant was collected for solubility measurement through gravimetric method by evaporation at 50° C. XRPD analysis was conducted on the solid after filtration of the slurries.\nFor the sake of comparison, the solubility of Compound 1, i.e., the non-crystalline freebase, was also measured in two solvent systems to see the effect of water."}}, "note": "Where a name gives a salt, the structure may show the parent alone. Read-outs that look alike come from different tables or passages of the source.", "data": [{"smiles": "O=C(c1ccc(NS(=O)(=O)c2cccc3cccnc23)cc1)N1CCN(CC2CC2)CC1", "note": "[Form D, N-(4-(4-(cyclopropylmethyl)piperazine-1-carbonyl)phenyl)quinoline-8-sulfonamide hemisulfate salt]", "values": [{"measurement": "Solubility", "setting": "[1]; FaSSGF, slurry time 1 hr", "result": 5.43, "unit": "mg Solid/mL solvent"}, {"measurement": "Solubility", "setting": "[1]; FaSSGF, slurry time 2 days, listed as D", "result": 5.94, "unit": "mg Solid/mL solvent"}, {"measurement": "Solubility", "setting": "[1]; FaSSIF, slurry time 2 days, listed as D", "result": 3.49, "unit": "mg Solid/mL solvent"}, {"measurement": "Solubility", "setting": "[1]; Water, slurry time 1 hr", "result": 2.62, "unit": "mg Solid/mL solvent"}, {"measurement": "Solubility", "setting": "[1]; Water, slurry time 2 days, listed as D", "result": 2.71, "unit": "mg Solid/mL solvent"}, {"measurement": "moisture picked up in DVS", "setting": "[2]; listed as Pattern D", "result": "about 2%"}, {"measurement": "XRPD after DVS", "setting": "[2]; listed as Pattern D", "result": "remained unchanged"}, {"measurement": "form after humidity exposure", "setting": "[3]", "result": "did not change the form"}]}, {"smiles": "O=C(c1ccc(NS(=O)(=O)c2cccc3cccnc23)cc1)N1CCN(CC2CC2)CC1", "note": "[Form B, N-(4-(4-(cyclopropylmethyl)piperazine-1-carbonyl)phenyl)quinoline-8-sulfonamide hemisulfate salt]", "values": [{"measurement": "Solubility", "setting": "[1]; FaSSGF, slurry time 2 days, listed as B", "result": 6.53, "unit": "mg Solid/mL solvent"}, {"measurement": "Solubility", "setting": "[1]; FaSSIF, slurry time 2 days, listed as B", "result": 0.20, "unit": "mg Solid/mL solvent"}, {"measurement": "Solubility", "setting": "[1]; Water, slurry time 2 days, listed as B", "result": 3.02, "unit": "mg Solid/mL solvent"}, {"measurement": "moisture picked up in DVS", "setting": "[2]", "result": "about 14%"}, {"measurement": "XRPD after DVS", "setting": "[2]", "result": "converted to a different Form K"}]}, {"smiles": "O=C(c1ccc(NS(=O)(=O)c2cccc3cccnc23)cc1)N1CCN(CC2CC2)CC1", "note": "[Crystalline Form A (unmicronized), 1-(cyclopropylmethyl)-4-(4-(quinoline-8-sulfonamido)benzoyl)piperazin-1-ium hemisulfate sesquihydrate]", "values": [{"measurement": "solubility compared to crystalline free-base of Compound 1", "setting": "[4]", "result": "more soluble"}, {"measurement": "AUC 0-last", "setting": "[5]; hemisulfate sesquihydrate", "result": "356 ± 82.9", "unit": "µg·h/mL"}, {"measurement": "Cmax", "setting": "[5]; hemisulfate sesquihydrate", "result": "29800 ± 5300", "unit": "ng/mL"}, {"measurement": "AUC fold higher compared to crystalline free-base of Compound 1", "setting": "[5]; hemisulfate sesquihydrate", "result": 2.7, "unit": "fold"}, {"measurement": "Cmax fold higher compared to crystalline free-base of Compound 1", "setting": "[5]; hemisulfate sesquihydrate", "result": 1.6, "unit": "fold"}]}, {"smiles": "O=C(c1ccc(NS(=O)(=O)c2cccc3cccnc23)cc1)N1CCN(CC2CC2)CC1", "note": "[Compound 1, N-(4-(4-(cyclopropylmethyl)piperazine-1-carbonyl)phenyl)quinoline-8-sulfonamide]", "values": [{"measurement": "solubility at 2 days", "setting": "[6]; MeOAc:MeOH (1:1) and 2.5 vol % water, 23 °C, MeOAc:MeOH (1:1) and 2.5 vol % water, 23° C.", "result": 15, "unit": "mg/mL"}, {"measurement": "solubility at 2 days", "setting": "[6]; MeOAc:MeOH (1:1) and 2.5 vol % water, 50 °C, MeOAc:MeOH (1:1) and 2.5 vol % water, 50° C.", "result": 36, "unit": "mg/mL"}, {"measurement": "solubility at 2 days", "setting": "[6]; MeOAc:MeOH (1:1), 23 °C, MeOAc:MeOH (1:1), 23° C.", "result": 15, "unit": "mg/mL"}, {"measurement": "solubility at 2 days", "setting": "[6]; MeOAc:MeOH (1:1), 50 °C, MeOAc:MeOH (1:1), 50° C.", "result": 34, "unit": "mg/mL"}, {"measurement": "impact of 2.5 vol % water on solubility", "setting": "[6]; MeOAc:MeOH (1:1)", "result": "did not have any impact"}]}, {"smiles": "O=C(c1ccc(NS(=O)(=O)c2cccc3cccnc23)cc1)N1CCN(CC2CC2)CC1", "note": "[Crystalline Form A (micronized), 1-(cyclopropylmethyl)-4-(4-(quinoline-8-sulfonamido)benzoyl)piperazin-1-ium hemisulfate sesquihydrate]", "values": [{"measurement": "solubility compared to crystalline free-base of Compound 1", "setting": "[4]", "result": "more soluble"}, {"measurement": "AUC 0-last", "setting": "[5]; hemisulfate sesquihydrate", "result": "478 ± 87.9", "unit": "µg·h/mL"}, {"measurement": "Cmax", "setting": "[5]; hemisulfate sesquihydrate", "result": "36700 ± 6800", "unit": "ng/mL"}, {"measurement": "AUC fold higher compared to crystalline free-base of Compound 1", "setting": "[5]; hemisulfate sesquihydrate", "result": 3.8, "unit": "fold"}, {"measurement": "Cmax fold higher compared to crystalline free-base of Compound 1", "setting": "[5]; hemisulfate sesquihydrate", "result": 2, "unit": "fold"}]}, {"smiles": "O=C(c1ccc(NS(=O)(=O)c2cccc3cccnc23)cc1)N1CCN(CC2CC2)CC1", "note": "[Crystalline free-base of Compound 1, N-(4-(4-(cyclopropylmethyl)piperazine-1-carbonyl)phenyl)quinoline-8-sulfonamide]", "values": [{"measurement": "AUC 0-last", "setting": "[5]", "result": "125 ± 85.8", "unit": "µg·h/mL"}, {"measurement": "Cmax", "setting": "[5]", "result": "17900 ± 3600", "unit": "ng/mL"}]}]}
